Test results from patent publication US8895547B2, “Substituted phenyl-oxathiazine derivatives, method for producing them, drugs containing said compounds and the use thereof” (Sanofi, priority 2011, dated 2014).

Target: T1, human 11β-HSD1 (Homo sapiens, UniProt P28845)
T1 construct: host or cells: microsome fraction
Experiment: Enzymatic 11beta-HSD1 test (SPA-based detection)
Type: biochemical
Conditions: human 11β-HSD1 microsome fraction, [1,2-3H]-cortisone, NADPH, 37° C. 1 hour
Outline: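 Scintillation proximity detection: anti-cortisol antibody on SPA-PVT beads captured tritiated cortisol. The stop mix also contained 0.01 mM SSR110887 and was equilibrated 1 h at room temperature before counting. Cortisol came from [1,2-3H]-cortisone ([…]), turned over by human 11β-HSD1 microsomal protein (0.2 µg) with 0.25 mM NADPH in HEPES buffer, 37 °C, 1 h.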

T1 sequence (P28845 whole entry): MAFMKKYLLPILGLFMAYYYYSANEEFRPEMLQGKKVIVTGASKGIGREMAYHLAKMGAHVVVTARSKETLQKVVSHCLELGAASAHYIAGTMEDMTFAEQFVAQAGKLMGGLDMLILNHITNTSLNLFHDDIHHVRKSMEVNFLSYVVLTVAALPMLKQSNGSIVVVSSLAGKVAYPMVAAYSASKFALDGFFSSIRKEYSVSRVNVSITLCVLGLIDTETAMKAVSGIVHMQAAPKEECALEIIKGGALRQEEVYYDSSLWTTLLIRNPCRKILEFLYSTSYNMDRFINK

For `C[C@H](NC1=NS(=O)(=O)[C@@H](c2ccc(-c3cccc(C(N)=O)c3)cc2)C(C)(C)O1)c1ccccc1F` [Example 174, 4′-{(S)-2-[(S)-1-(2-fluorophenyl)-ethylamino]-6,6-dimethyl-4,4-dioxo-5,6-dihydro-4H-4lambda6-[1,4,3]oxathiazin-5-yl}-biphenyl-3-carboxamide], which IC50 is on record?
Its IC50 is 18 nM.

Which IC50 does the source give for `CC1(C)OC(N[C@@H](CCO)c2ccccc2F)=NS(=O)(=O)C1c1ccc(-c2ccccc2)nc1` (stereo partly drawn) [Example 165, (S)-3-[6,6-Dimethyl-4,4-dioxo-5-(6-phenyl-pyridin-3-yl)-5,6-dihydro-4H-4lambda6-[1,4,3]oxathiazin-2-ylamino]-3-(2-fluorophenyl)-propan-1-ol] here?
Its IC50 is 7 nM.
